“Also recorded” adds a separate entry of the source.
What was measured:
SARS-CoV-2 [1] = test: microbe, parasite or virus in culture; assay type: cell-based; settings: Severe acute respiratory syndrome coronavirus 2, Vero C1008, Vero E6 cells, SARS-CoV-2/Leiden0002, n = 3, mean ± SEM; read-out: EC50 (μM), SARS-CoV-2 CPE reduction
MERS-CoV = assay type: cell-based; settings: HuH-7, MOI 1, 16 hpi, increasing concentrations
ER α-Glu II (GANAB) = test: Competitive activity-based protein profiling with ABP 29 in ALI-PBEC lysate, GANAB; assay type: cell-based, human
SARS-CoV-2 [2] = test: Plaque reduction assay on H1299/ACE2 cells (time of treatment); assay type: cell-based
Experimental: To evaluate whether compound 11 has an effect on host proteins (for instance, ACE2) involved in viral entry, we treated monolayers of H1299/ACE2 cells with compound 11 either 48 or 2 h before infection, during infection (0–1 h), or starting from 1 h postinfection (hpi). The cell monolayers were infected with ∼20 PFU of SARS-CoV-2, and after 1 h the inoculum was replaced with an overlay. In one well (Post Infection) the overlay contained compound 11. Remdesivir, a viral RNA synthesis inhibitor, was added to the overlay of another well, as a positive control for blocking virus replication in the cell.
H1299/ACE2 cells were seeded in a 6-well plate at a density of 1.3 × 10^5 cells/well (20% confluency), 96 h prior to infection. […] The monolayers were infected with ∼20 PFU of SARS-CoV-2/Leiden0008. In the postinfection treatment, the compound (or RDV) was added to the Avicel overlay. Cells were incubated for 4 days at 37 °C before fixation and crystal violet staining.

SARS-CoV-2 [3] = test: CPE reduction assay on H1299/ACE2 lung epithelial cells; assay type: cell-based; settings: compared with Vero E6
GBA1 = settings: cited from earlier work
in vitro = settings: African green monkey

## O=S1(=O)O[C@@H]2[C@H](O)[C@@H](O)[C@H](O)[C@@H](CO)[C@@H]2O1 [Compound 11, 1,6-epi-cyclophellitol cyclosulfate]
SARS-CoV-2 [1]
  EC50: 0.48 ± 0.1 µM
MERS-CoV
  infectious progeny of MERS-CoV (in words): significant reduction of infectious progeny
ER α-Glu II (GANAB); 0.5 μM
  ER α-Glu II inhibition in ALI-PBEC (in words): almost full inhibition
ER α-Glu II (GANAB); pH 7
  in cellulo ER α-Glu II inhibition by ABP 29 labeling (in words): most efficient in inhibiting ER α-Glu II and GAA at low concentrations
SARS-CoV-2 [2]; H1299/ACE2, 5 μM, 48 or 2 h before or 0–1 h
  plaque formation, pretreatment or treatment only during infection: had no effect on the number of plaques that developed or their morphology
SARS-CoV-2 [2]; H1299/ACE2, compound 11 at 5 μM
  plaque formation, treatment after infection (in the overlay): prevented the formation of plaques
SARS-CoV-2 [3]
  EC50 values in CPE reduction assay (in words): comparable EC50 values
GBA1
  inhibition of GBA1: completely inactive; also recorded: does not inhibit
In vitro
  CC50 at 3 days: > 200000 nM

From paper PMC11363342 (ACS Central Science, 2024)
